Measured values from patent EP0521310A2, “Solid dispersion tablets containing 1,4-dihydropyridine derivatives and process for the preparation thereof” (FUJIREBIO Inc., priority 1991, dated 1993).

Assay: thermal analysis (DSC) of solid dispersions, conversion to amorphous form
Assay type: physicochemical
Protocol: HPC and FRC8653, in the propotion of 1, 2, 3, 4 or 5 parts by weight of HPC based on one part by weight of FRC8653, were added to the mixed solvent of methanol/dichloromethane and dissolved, followed by removal of the solvent and drying. The samples obtained were subjected to thermal analysis (DSC).
Both HP55 (Shin-Etsu Chemical Co.) and FRC8653, in the proportion of 1, 2, 3, 4 or 5 parts by weight of HP55 based on one part by weight of FRC8653, were added to the mixed solvent of methanol/dichloromethane and dissolved, followed by removal of the solvent and drying in order to subject to thermal analysis (DSC). The amount of HP55 necessary to convert the FRC8653 into its amorphous form was 2 parts by weight or more per one part by weight of FRC8653.

amount of HPC required to convert FRC8653 into its amorphous form (Fig. 3): ≥ 4 parts by weight per one part b
amount of HP55 necessary to convert the FRC8653 into its amorphous form (Fig. 6): ≥ 2 parts by weight per one part b
SMILES: COCCOC(=O)C1=C(C)NC(C)=C(C(=O)OC/C=C/c2ccccc2)C1c1cccc([N+](=O)[O-])c1 (racemic) [FRC8653, 2-methoxyethyl (E)-3-phenyl-2-propen-1-yl (+/-)-1,4-dihydro-2,6-dimethyl-4-(3-nitrophenyl)-3,5-pyridinedicarboxylate]
